Structures can show the parent of a compound that is named as a salt.
Key:
ASK1 = ASK1 (Homo sapiens (Human), UniProt Q99683); assay: Human ASK1 ADP-Glo kinase assay; assay type: biochemical; details: recombinant ASK1 (amino acids 649-946), 50 μM ATP, MBP substrate
Procedure: Example B-1: Human ASK1 ADP-Glo Assay
The ability of test compounds to inhibit ASK1 kinase activity was determined using the luminescent ADP-Glo™ Kinase Assay and Myelin Basic Protein (MBP) as a substrate (Promega Corporation, Madison, Wis.). During the kinase reaction, ASK1 utilizes ATP and generates ADP. The remaining ATP is then depleted by addition of the ADP-Glo™ reagent which also terminates the reaction. Subsequent addition of the Kinase Detection Reagent converts the ADP that was produced during the kinase reaction to ATP, and this newly synthesized ATP is converted to light using the luciferase/luciferin reactions. The assay was performed according to the manufacturer's instructions. Briefly, purified, recombinant ASK1 (amino acids 649-946) (10-20 ng/well) was added to a 384-well, F bottom, small volume, HIbase, white plate (Greiner Bio-One, Monroe, N.C. #784075) containing 1-2 μL 5× test compound or vehicle control (diluted 1:20 from a 100% DMSO stock solution into 1× Reaction Buffer A). The enzyme was allowed to pre-incubate with test compound from 15-120 min at 30° C. before the addition of the ATP/substrate mix (final concentrations of 50 μM ATP+250 ng MBP in 1× Reaction Buffer A). The mixture was then incubated at room temperature for 40 min before the addition of ADP-Glo™ reagent and a second 40 minute room temperature incubation. Following the addition of the Kinase Detection Reagent, the plate was incubated for an additional 40 min at room temperature before reading luminescence on a FlexStation 3 (Molecular Devices, Sunnyvale, Calif.). Maximum activity was determined from wells treated with vehicle and was set to 100% and minimum activity was determined from wells containing no enzyme and this was set to 0%. Percent inhibition was calculated relative to the controls and the data graphed in Collaborative Drug Discovery (CDD) Vault (Burlingame, Calif.).

human LOXL2 = human LOXL2 (Homo sapiens (Human), UniProt Q9Y4K0); assay: Human LOXL2 amine oxidase activity assay (Amplex Red); assay type: biochemical; details: concentrated conditioned media from CHO cells expressing human LOXL2, 2 h preincubation at 37° C., DAP substrate
Sequence of human LOXL2 (Q9Y4K0 26-774): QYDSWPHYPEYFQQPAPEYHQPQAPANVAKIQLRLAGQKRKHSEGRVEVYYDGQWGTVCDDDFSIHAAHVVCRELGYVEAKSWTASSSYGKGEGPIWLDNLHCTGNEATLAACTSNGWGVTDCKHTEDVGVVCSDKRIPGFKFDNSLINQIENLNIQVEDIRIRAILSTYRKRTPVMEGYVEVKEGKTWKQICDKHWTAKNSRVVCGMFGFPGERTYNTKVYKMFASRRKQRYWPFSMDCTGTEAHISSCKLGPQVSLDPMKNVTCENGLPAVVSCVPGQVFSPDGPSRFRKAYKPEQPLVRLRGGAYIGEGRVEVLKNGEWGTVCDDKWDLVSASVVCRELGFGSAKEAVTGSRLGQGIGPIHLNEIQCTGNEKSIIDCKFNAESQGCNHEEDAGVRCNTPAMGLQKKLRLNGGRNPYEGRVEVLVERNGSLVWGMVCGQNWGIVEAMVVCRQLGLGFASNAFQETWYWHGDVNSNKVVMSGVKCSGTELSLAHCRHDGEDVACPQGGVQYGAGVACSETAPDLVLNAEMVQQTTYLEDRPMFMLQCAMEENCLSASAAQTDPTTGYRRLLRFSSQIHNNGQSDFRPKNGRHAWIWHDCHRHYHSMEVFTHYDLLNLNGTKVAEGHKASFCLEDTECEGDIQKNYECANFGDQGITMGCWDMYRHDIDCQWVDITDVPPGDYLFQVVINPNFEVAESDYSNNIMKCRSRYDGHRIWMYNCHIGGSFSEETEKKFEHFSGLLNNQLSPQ
Procedure: Example B-2: Human LOXL2 Amine Oxidase Activity Assay
LOXL2 amine oxidase activity was evaluated by measuring Amplex Red fluorescence using 10-20× concentrated conditioned media from CHO cells stably expressing human LOXL2. To assay for amine oxidase activity, 10 μL of the concentrated conditioned media was incubated with 2 μL of test compound in DMSO and 73 μL Assay Buffer (50 mM Borate Buffer, pH8) for 2 h at 37° C. After the 2 h incubation, 5 μL of 10 mM 1,5-Diaminopentane (DAP) diluted in Assay Buffer and 10 μL of Amplex Red Mix (8.5 μL Assay Buffer+0.5 μL of 10 mM Amplex Red+1 μL of 500 U/ml Horseradish Peroxidase) were added and the plate mixed and immediately placed on the FlexStation for fluorescence measurements. Fluorescence was read in kinetic mode every 2 min for 0.5-1 hour at excitation=544 and emission=590. The amine oxidase activity was calculated from the slope of the linear portion of the curve. Wells containing vehicle (DMSO) represented maximum activity and were set to 0% inhibition and wells containing 100 μM βAPN (3-aminopropionitrile) represented no activity and were set to 100% inhibition.

Sequence of ASK1 (Q99683 649-946): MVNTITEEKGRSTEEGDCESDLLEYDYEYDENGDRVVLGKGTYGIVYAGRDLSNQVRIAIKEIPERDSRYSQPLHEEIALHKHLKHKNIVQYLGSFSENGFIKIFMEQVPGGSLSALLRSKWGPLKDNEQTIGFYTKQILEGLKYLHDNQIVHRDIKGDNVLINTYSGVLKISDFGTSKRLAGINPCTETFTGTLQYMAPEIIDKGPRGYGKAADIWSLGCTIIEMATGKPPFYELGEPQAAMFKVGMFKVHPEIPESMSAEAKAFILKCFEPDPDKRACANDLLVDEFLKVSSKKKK

| Structure (SMILES) | IC50 (ASK1) [nM] | IC50 (human LOXL2) [nM] |
| --- | --- | --- |
| NCc1cc(Oc2ccnc(C(=O)Nc3cccc(-c4nncn4C4CC4)n3)c2)nc(C(F)(F)F)c1 [Compound 1-330, 4-((4-(Aminomethyl)-6-(trifluoromethyl)pyridin-2-yl)oxy)-N-(6-(4-cyclopropyl-4H-1,2,4-triazol-3-yl)pyridin-2-yl)picolinamide hydrochloride] | < 300 | < 300 |
| CC(C)n1cnnc1-c1cccc(NC(=O)c2cccc(Oc3cc(CN)cc(C(F)(F)F)n3)c2)n1 [Compound 1-331, 3-((4-(Aminomethyl)-6-(trifluoromethyl)pyridin-2-yl)oxy)-N-(6-(4-isopropyl-4H-1,2,4-triazol-3-yl)pyridin-2-yl)benzamide hydrochloride] | < 300 | < 300 |
| CC(C)n1cnnc1-c1cccc(NC(=O)c2cc(NC(=O)c3ccc(CN)cc3)ccc2F)n1 [Compound 1-306, 5-(4-(Aminomethyl)benzamido)-2-fluoro-N-(6-(4-isopropyl-4H-1,2,4-triazol-3-yl)pyridin-2-yl)benzamide hydrochloride] | < 300 | > 1000 |

Source: US11345676B2, “Apoptosis signal-regulating kinase 1 (ASK 1) inhibitor compounds” (PHARMAKEA, INC., priority 2017, dated 2022)
